# Reference: patent US20170002011A1, “BENZENE SULFONAMIDES AS CCR9 INHIBITORS” (NORGINE B.V., priority 2013, published 2017)
# Molecular target: T1, CCR9 (Homo sapiens, UniProt P51686)
# T1 sequence (P51686 1-369): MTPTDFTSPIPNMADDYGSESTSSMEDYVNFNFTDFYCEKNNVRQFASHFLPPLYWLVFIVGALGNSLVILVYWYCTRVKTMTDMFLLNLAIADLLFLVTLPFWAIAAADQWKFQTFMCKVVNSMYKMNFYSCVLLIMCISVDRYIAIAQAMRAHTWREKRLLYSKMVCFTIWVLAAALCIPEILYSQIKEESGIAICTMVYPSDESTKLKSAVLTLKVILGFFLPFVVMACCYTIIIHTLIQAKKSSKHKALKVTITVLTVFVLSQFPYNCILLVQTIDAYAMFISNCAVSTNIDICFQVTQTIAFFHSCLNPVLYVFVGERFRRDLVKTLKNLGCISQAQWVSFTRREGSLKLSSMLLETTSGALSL
# Test: FLIPR calcium flux assay using MOLT4 cells (TECK stimulation)
# Format: cell-based
# Parameters: endogenous in cells; host or cells: MOLT4 (human T-cell line)
# Conditions: MOLT4 cells (a human T-cell line); Ki determined from IC50 of TECK-induced intracellular calcium increase
# Protocol: Biological Activity: FLIPR Assay Using MOLT4 Cells
# A calcium flux assay was used to determine the ability of the compounds to interfere with the binding between CCR9 and its chemokine ligand (TECK) in MOLT4 cells (a human T-cell line). MOLT4 cells were seeded (100,000 cells/well) in coming cell culture plates (Cat #3603) in assay buffer (lx HBSS, 20 mM HEPES) containing 2.5 mM Probenecid. The plate was centrifuged at 1200 rpm for 3 minutes and incubated at 37° C./5% CO2 for 2 hours. A 0.3× Fluo-4 NW calcium dye was prepared in assay buffer containing 5 mM Probenecid and stored in the dark. Each well was loaded with 25 μL of 0.3× Fluo-4 NW calcium dye and incubated at 37 C/5% CO2 for 60 minutes and then at room temperature for 30 minutes. A half-log serially diluted concentration response curve was prepared at a 4× concentration for each (10 μM-0.1 nM final assay concentration) and 25 μL of the compound then transferred to the cells (100 μL final volume) for 60 minutes prior to stimulation (30 minutes at 37° C./5% CO2 and 30 minutes at room temperature). TECK was diluted to 5× its EC50 in assay buffer (containing 0.1% [w/v] bovine serum albumin [BSA]) and 25 μL dispensed through the FLIPR instrument to stimulate the cells (125 μL final volume). The increased in intracellular calcium levels was measured with the FLIPR instrument. The potency of the compound as CCR9 antagonist was calculated as an IC50 using GraphPad Prism software (variable slope four parameter). The Ki of the compound was determined from the IC50 values using the following equation.
# (§1) Ki calculation: IC50/1+(Agonist (TECK) conc. used in assay/EC50 of agonist (TECK) generated on day of experiment)
row,Compound,Ki [nM]
1,"Cc1cc2nccc(NS(=O)(=O)c3ccc(-c4cnco4)cc3)n2n1 [Compound 1, N-(2-methylpyrazolo[1,5-a]pyrimidin-7-yl)-4-(oxazol-5-yl)benzenesulfonamide]",19
2,Cc1cc2nccc(NS(=O)(=O)c3ccc(C(C)(C)C)cc3)n2n1 [Compound 3],315
3,Cc1cc2nccc(NS(=O)(=O)c3ccc(N4CCOCC4)cc3)n2n1 [Compound 22],4000
4,Cc1cc2nccc(NS(=O)(=O)c3ccc(C(F)(F)F)cc3)n2n1 [Compound 23],1700
5,Cc1cc2nccc(NS(=O)(=O)c3ccc(Br)cc3)n2n1 [Compound 28],6190
6,Cc1cc2nccc(NS(=O)(=O)c3cccc(C(C)(C)C)c3)n2n1 [Compound 32],1780
7,Cc1cc2nccc(NS(=O)(=O)c3ccc(OC(F)F)cc3)n2n1 [Compound 33],1210
8,O=S(=O)(Nc1ccnc2cc(C3CC3)nn12)c1cccc(C(F)(F)F)c1 [Compound 39],5890
9,O=S(=O)(Nc1ccnc2cc(C3CC3)nn12)c1ccc(C(F)(F)F)cc1 [Compound 41],1880
10,O=S(=O)(Nc1ccnc2cc(C3CC3)nn12)c1ccc(OC(F)(F)F)cc1 [Compound 42],1590
11,CC(C)(C)c1cccc(S(=O)(=O)Nc2ccnc3cc(C4CC4)nn23)c1 [Compound 44],1420
12,O=S(=O)(Nc1ccnc2cc(C3CC3)nn12)c1cccc(OC(F)(F)F)c1 [Compound 50],3750
13,O=S(=O)(Nc1ccnc2cc(C3CC3)nn12)c1ccc(OC(F)F)cc1 [Compound 51],3200
14,"CC(C)(C)c1ccc(S(=O)(=O)Nc2ccnc3cc(-c4cccnc4)nn23)cc1 [Compound 62, 4-(tert-butyl)-N-(2-(pyridin-3-yl)pyrazolo[1,5-a]pyrimidin-7-yl)benzenesulfonamide]",253
15,"CC(C)(C)c1ccc(S(=O)(=O)Nc2ccnc3cc(-c4ccc(C#N)cc4)nn23)cc1 [Compound 75, 4-(tert-butyl)-N-(2-(4-cyanophenyl)pyrazolo[1,5-a]pyrimidin-7-yl)benzenesulfonamide]",1550
16,CCc1cc2nccc(NS(=O)(=O)c3ccc(Cl)c(C(F)(F)F)c3)n2n1 [Compound 87],3230
17,O=S(=O)(Nc1ccnc2cc(-c3ccc(Cl)cc3)nn12)c1ccc(-c2cnco2)cc1 [Compound 90],1380
18,CC(C)c1cc2c(Cl)ccc(NS(=O)(=O)c3ccc(C(F)(F)F)cc3)n2n1 [Compound 101],492
19,CCc1cc2c(Cl)ccc(NS(=O)(=O)c3ccc(C(F)(F)F)cc3)n2n1 [Compound 106],177
20,O=S(=O)(Nc1ccc(Cl)c2cc(C3CC3)nn12)c1ccc(Cl)c(C(F)(F)F)c1 [Compound 108],456
21,O=S(=O)(Nc1ccc(Cl)c2cc(-c3cccnc3)nn12)c1ccc(OC(F)(F)F)cc1 [Compound 112],92
22,O=S(=O)(Nc1ccc(Cl)c2cc(-c3cccnc3)nn12)c1ccc(F)cc1 [Compound 115],640

# Now from value to compound:
row,Ki [nM],Compound
1,1030,O=S(=O)(Nc1ccc(Cl)c2cc(-c3ccc[n+]([O-])c3)nn12)c1ccc(OC(F)(F)F)cc1 [Compound 116]
2,219,CC(C)(C#N)c1ccc(S(=O)(=O)Nc2ccc(Cl)c3cc(-c4cccnc4)nn23)cc1 [Compound 123]
3,73,COc1cc(-c2cc3c(Cl)ccc(NS(=O)(=O)c4ccc(C(C)C)cc4)n3n2)c[n+]([O-])c1 [Compound 126]
4,192,COc1cncc(-c2cc3c(Cl)ccc(NS(=O)(=O)c4ccc(C(C)(C)C)cc4)n3n2)c1 [Compound 127]
5,170,COc1cncc(-c2cc3c(Cl)ccc(NS(=O)(=O)c4ccc(C(F)(F)F)cc4)n3n2)c1 [Compound 128]
6,171,CC(C)(C)c1ccc(S(=O)(=O)Nc2ccc(Cl)c3cc(-c4cncc(F)c4)nn23)cc1 [Compound 132]
7,182,O=S(=O)(Nc1ccc(Cl)c2cc(-c3cncc(F)c3)nn12)c1ccc(C(F)(F)F)cc1 [Compound 133]
8,105,Cn1nccc1-c1cc2c(Cl)ccc(NS(=O)(=O)c3ccc(C(C)(C)C)cc3)n2n1 [Compound 143]
9,39,CC(C)(C)c1ccc(S(=O)(=O)Nc2ccc(C#N)c3cc(-c4ccncc4)nn23)cc1 [Compound 150]
10,76,"CC(C)(C)c1ccc(S(=O)(=O)Nc2ccc(C#N)c3cc(-c4cncc(C#N)c4)nn23)cc1 [Compound 154, 4-(tert-butyl)-N-(4-cyano-2-(5-cyanopyridin-3-yl)pyrazolo[1,5-a]pyridin-7-yl)benzenesulfonamide]"
11,170,COc1cncc(-c2cc3c(Br)ccc(NS(=O)(=O)c4ccc(C(C)(C)C)cc4)n3n2)c1 [Compound 160]
12,129,"Cn1cc(-c2cc3c(Br)ccc(NS(=O)(=O)c4ccc(C(C)(C)C)cc4)n3n2)cn1 [Compound 165, 4-(tert-butyl)-N-(4-bromo-2-(1-methyl-1H-pyrazol-4-yl)pyrazolo[1,5-a]pyridin-7-yl)benzenesulfonamide]"
13,27,"CC(C)(C)c1ccc(S(=O)(=O)Nc2ccc(C#N)c3cc(-c4cnco4)nn23)cc1 [Compound 170, 4-(tert-butyl)-N-(4-cyano-2-(oxazol-5-yl)pyrazolo[1,5-a]pyridin-7-yl)benzenesulfonamide]"
14,377,"COc1ccc(NS(=O)(=O)c2ccc(C(C)(C)C)cc2)n2nc(-c3cccnc3)cc12 [Compound 173, 4-(tert-butyl)-N-(4-methoxy-2-(pyridin-3-yl)pyrazolo[1,5-a]pyridin-7-yl)benzenesulfonamide]"
15,116,CCn1cc(-c2cc3c(Cl)ccc(NS(=O)(=O)c4ccc(C(C)(C)C)cc4)n3n2)cn1 [Compound 185]
16,318,Cc1c(-c2cc3c(Cl)ccc(NS(=O)(=O)c4ccc(C(C)(C)C)cc4)n3n2)cnn1C [Compound 187]
17,194,CC(C)(C)c1ccc(S(=O)(=O)Nc2ccc(Cl)c3cc(-c4cnccn4)nn23)cc1 [Compound 188]
18,81,CC(C)(C)c1ccc(S(=O)(=O)Nc2ccc(C#N)c3cc(-c4ccccn4)nn23)cc1 [Compound 193]
19,110,CCOc1ccc(-c2cc3c(Cl)ccc(NS(=O)(=O)c4ccc(C(C)(C)C)cc4)n3n2)cn1 [Compound 194]
20,34,CCOc1ccc(-c2cc3c(C#N)ccc(NS(=O)(=O)c4ccc(C(C)(C)C)cc4)n3n2)cn1 [Compound 195]
21,189,COc1ccc(-c2cc3c(Cl)ccc(NS(=O)(=O)c4ccc(C(C)(C)C)cc4)n3n2)cn1 [Compound 197]
22,192,COc1ncccc1-c1cc2c(Cl)ccc(NS(=O)(=O)c3ccc(C(C)(C)C)cc3)n2n1 [Compound 201]
23,88,Cc1ccncc1-c1cc2c(Cl)ccc(NS(=O)(=O)c3ccc(C(C)(C)C)cc3)n2n1 [Compound 208]
24,149,COc1ccc(-c2cc3c(C#N)ccc(NS(=O)(=O)c4ccc(C(C)(C)C)cc4)n3n2)c(OC)n1 [Compound 210]

# Molecular target: T1, CCR9
# Test: FLIPR calcium flux assay using hCCR9 over expressed cells (TECK stimulation)
# Format: cell-based
# Parameters: expressed in transfected cells; host or cells: Chem-1 cells overexpressing hCCR9
# Conditions: Chem1-hCCR9 overexpressing cells; Ki determined from IC50 of TECK-induced intracellular calcium increase
# Protocol: Biological Activity: FLIPR Assay Using hCCR9 Over Expressed Cells
# A calcium flux assay was used to determine the ability of the compounds to interfere with the binding between CCR9 and its chemokine ligand (TECK) in Cheml-hCCR9 overexpressing cells. hCCR9 overexpressing cells were seeded (25,000 cells/well) into black Poly-D-Lysine coated clear bottom 96-well plates (BD Biosciences, Cat #356640) and incubated overnight at 37° C./5% CO2 in a humidified incubator. Media was aspirated and cells washed twice with 100 μL assay buffer (1×HBSS, 20 mM HEPES) containing 2.5 mM Probenecid. A 0.3× Fluo-4 NW calcium dye was prepared in assay buffer containing 5 mM Probenecid and stored in the dark. Each well was loaded with 100 μL of 0.3× Fluo-4 NW calcium dye and incubated at 37° C./5% CO2 for 60 minutes and then at room temperature for 30 minutes. A half-log serially diluted concentration response curve was prepared at a 3× final assay concentration for each compound (10 μM−0.1 nM final assay concentration) and 50 μL of the compound then transferred to the cells (150 μL final volume) for 60 minutes prior to stimulation (30 minutes at 37° C./5% CO2 and 30 minutes at room temperature). TECK was diluted to 4× its ECso in assay buffer (containing 0.1% [w/v] bovine serum albumin[BSA]) and 50 μL dispensed through the fluorometric imaging plate reader (FLIPR) instrument to stimulate the cells (200 μL final volume). The increase in intracellular calcium levels was measured with the FLIPR instrument. The potency of the compound as a CCR9 antagonist was calculated as an IC50 using GraphPad Prism software (variable slope four parameter). The Ki of the compound was determined from the IC50 values using the following equation.
# as §1
row,Compound,Ki [nM]
1,"Cc1cc2nccc(NS(=O)(=O)c3ccc(-c4cnco4)cc3)n2n1 [Compound 1, N-(2-methylpyrazolo[1,5-a]pyrimidin-7-yl)-4-(oxazol-5-yl)benzenesulfonamide]",456
2,Cc1cc2nccc(NS(=O)(=O)c3ccc(C(C)(C)C)cc3)n2n1 [Compound 3],1440
